According to patent US20160015638A1, “STABLE GLUCOKINASE ACTIVATOR COMPOSITIONS” (vTv Therapeutics LLC, priority 2013, published 2016):

How the values were obtained:
[1] = Biopharmaceutics Classification System (BCS) classification; format: physicochemical
Text: As a result, Class IV drugs have poor bioavailability and are usually not well-absorbed while having high variability. Preparing a stable, bioavailable composition containing {2-[3-cyclohexyl-3-(trans-4-propoxy-cyclohexyl)-ureido]-thiazol-5-ylsulfanyl}-acetic acid or a pharmaceutically acceptable salt thereof is, however, not straight forward.

[2] = system: insulin secretion by the pancreas; conditions: in the presence of glucose; cited from earlier work
[3] = X-ray powder diffraction (XRPD) crystal structure before and after processing; format: physicochemical
Text: The crystal structure of {2-[3-cyclohexyl-3-(trans-4-propoxy-cyclohexyl)-ureido]-thiazol-5-ylsulfanyl}-acetic acid was not changed during nanosizing.
The crystal structure of {2-[3-cyclohexyl-3-(trans-4-propoxy-cyclohexyl)-ureido]-thiazol-5-ylsulfanyl}-acetic acid was not changed during spray drying.

Biopharmaceutics Classification System (BCS) class [1]: Class IV
solubility ([1]; BCS classification): low solubility
crystal structure (XRPD) ([3]; during nanosizing by microfluidization, lyophilized suspension): not changed
crystal structure (XRPD) ([3]; during spray drying): not changed
SMILES: CCCO[C@H]1CC[C@H](N(C(=O)Nc2ncc(SCC(=O)O)s2)C2CCCCC2)CC1 [{2-[3-cyclohexyl-3-(trans-4-propoxy-cyclohexyl)-ureido]-thiazol-5-ylsulfanyl}-acetic acid]
insulin secretion by the pancreas [2]: does not increase insulin secretion
